{
  "source": "paper PMC4287973",
  "about": "“Tumor cell-specific inhibition of MYC function using small molecule inhibitors of the HUWE1 ubiquitin ligase” (EMBO Molecular Medicine, 2014)",
  "key": {"HUWE1": {"biological_target": "T1, HUWE1 (Homo sapiens, UniProt Q7Z6Z7)", "T1 construct": "expressed in transfected cells; host or cells: HeLa", "T1 sequence (Q7Z6Z7 whole entry)": "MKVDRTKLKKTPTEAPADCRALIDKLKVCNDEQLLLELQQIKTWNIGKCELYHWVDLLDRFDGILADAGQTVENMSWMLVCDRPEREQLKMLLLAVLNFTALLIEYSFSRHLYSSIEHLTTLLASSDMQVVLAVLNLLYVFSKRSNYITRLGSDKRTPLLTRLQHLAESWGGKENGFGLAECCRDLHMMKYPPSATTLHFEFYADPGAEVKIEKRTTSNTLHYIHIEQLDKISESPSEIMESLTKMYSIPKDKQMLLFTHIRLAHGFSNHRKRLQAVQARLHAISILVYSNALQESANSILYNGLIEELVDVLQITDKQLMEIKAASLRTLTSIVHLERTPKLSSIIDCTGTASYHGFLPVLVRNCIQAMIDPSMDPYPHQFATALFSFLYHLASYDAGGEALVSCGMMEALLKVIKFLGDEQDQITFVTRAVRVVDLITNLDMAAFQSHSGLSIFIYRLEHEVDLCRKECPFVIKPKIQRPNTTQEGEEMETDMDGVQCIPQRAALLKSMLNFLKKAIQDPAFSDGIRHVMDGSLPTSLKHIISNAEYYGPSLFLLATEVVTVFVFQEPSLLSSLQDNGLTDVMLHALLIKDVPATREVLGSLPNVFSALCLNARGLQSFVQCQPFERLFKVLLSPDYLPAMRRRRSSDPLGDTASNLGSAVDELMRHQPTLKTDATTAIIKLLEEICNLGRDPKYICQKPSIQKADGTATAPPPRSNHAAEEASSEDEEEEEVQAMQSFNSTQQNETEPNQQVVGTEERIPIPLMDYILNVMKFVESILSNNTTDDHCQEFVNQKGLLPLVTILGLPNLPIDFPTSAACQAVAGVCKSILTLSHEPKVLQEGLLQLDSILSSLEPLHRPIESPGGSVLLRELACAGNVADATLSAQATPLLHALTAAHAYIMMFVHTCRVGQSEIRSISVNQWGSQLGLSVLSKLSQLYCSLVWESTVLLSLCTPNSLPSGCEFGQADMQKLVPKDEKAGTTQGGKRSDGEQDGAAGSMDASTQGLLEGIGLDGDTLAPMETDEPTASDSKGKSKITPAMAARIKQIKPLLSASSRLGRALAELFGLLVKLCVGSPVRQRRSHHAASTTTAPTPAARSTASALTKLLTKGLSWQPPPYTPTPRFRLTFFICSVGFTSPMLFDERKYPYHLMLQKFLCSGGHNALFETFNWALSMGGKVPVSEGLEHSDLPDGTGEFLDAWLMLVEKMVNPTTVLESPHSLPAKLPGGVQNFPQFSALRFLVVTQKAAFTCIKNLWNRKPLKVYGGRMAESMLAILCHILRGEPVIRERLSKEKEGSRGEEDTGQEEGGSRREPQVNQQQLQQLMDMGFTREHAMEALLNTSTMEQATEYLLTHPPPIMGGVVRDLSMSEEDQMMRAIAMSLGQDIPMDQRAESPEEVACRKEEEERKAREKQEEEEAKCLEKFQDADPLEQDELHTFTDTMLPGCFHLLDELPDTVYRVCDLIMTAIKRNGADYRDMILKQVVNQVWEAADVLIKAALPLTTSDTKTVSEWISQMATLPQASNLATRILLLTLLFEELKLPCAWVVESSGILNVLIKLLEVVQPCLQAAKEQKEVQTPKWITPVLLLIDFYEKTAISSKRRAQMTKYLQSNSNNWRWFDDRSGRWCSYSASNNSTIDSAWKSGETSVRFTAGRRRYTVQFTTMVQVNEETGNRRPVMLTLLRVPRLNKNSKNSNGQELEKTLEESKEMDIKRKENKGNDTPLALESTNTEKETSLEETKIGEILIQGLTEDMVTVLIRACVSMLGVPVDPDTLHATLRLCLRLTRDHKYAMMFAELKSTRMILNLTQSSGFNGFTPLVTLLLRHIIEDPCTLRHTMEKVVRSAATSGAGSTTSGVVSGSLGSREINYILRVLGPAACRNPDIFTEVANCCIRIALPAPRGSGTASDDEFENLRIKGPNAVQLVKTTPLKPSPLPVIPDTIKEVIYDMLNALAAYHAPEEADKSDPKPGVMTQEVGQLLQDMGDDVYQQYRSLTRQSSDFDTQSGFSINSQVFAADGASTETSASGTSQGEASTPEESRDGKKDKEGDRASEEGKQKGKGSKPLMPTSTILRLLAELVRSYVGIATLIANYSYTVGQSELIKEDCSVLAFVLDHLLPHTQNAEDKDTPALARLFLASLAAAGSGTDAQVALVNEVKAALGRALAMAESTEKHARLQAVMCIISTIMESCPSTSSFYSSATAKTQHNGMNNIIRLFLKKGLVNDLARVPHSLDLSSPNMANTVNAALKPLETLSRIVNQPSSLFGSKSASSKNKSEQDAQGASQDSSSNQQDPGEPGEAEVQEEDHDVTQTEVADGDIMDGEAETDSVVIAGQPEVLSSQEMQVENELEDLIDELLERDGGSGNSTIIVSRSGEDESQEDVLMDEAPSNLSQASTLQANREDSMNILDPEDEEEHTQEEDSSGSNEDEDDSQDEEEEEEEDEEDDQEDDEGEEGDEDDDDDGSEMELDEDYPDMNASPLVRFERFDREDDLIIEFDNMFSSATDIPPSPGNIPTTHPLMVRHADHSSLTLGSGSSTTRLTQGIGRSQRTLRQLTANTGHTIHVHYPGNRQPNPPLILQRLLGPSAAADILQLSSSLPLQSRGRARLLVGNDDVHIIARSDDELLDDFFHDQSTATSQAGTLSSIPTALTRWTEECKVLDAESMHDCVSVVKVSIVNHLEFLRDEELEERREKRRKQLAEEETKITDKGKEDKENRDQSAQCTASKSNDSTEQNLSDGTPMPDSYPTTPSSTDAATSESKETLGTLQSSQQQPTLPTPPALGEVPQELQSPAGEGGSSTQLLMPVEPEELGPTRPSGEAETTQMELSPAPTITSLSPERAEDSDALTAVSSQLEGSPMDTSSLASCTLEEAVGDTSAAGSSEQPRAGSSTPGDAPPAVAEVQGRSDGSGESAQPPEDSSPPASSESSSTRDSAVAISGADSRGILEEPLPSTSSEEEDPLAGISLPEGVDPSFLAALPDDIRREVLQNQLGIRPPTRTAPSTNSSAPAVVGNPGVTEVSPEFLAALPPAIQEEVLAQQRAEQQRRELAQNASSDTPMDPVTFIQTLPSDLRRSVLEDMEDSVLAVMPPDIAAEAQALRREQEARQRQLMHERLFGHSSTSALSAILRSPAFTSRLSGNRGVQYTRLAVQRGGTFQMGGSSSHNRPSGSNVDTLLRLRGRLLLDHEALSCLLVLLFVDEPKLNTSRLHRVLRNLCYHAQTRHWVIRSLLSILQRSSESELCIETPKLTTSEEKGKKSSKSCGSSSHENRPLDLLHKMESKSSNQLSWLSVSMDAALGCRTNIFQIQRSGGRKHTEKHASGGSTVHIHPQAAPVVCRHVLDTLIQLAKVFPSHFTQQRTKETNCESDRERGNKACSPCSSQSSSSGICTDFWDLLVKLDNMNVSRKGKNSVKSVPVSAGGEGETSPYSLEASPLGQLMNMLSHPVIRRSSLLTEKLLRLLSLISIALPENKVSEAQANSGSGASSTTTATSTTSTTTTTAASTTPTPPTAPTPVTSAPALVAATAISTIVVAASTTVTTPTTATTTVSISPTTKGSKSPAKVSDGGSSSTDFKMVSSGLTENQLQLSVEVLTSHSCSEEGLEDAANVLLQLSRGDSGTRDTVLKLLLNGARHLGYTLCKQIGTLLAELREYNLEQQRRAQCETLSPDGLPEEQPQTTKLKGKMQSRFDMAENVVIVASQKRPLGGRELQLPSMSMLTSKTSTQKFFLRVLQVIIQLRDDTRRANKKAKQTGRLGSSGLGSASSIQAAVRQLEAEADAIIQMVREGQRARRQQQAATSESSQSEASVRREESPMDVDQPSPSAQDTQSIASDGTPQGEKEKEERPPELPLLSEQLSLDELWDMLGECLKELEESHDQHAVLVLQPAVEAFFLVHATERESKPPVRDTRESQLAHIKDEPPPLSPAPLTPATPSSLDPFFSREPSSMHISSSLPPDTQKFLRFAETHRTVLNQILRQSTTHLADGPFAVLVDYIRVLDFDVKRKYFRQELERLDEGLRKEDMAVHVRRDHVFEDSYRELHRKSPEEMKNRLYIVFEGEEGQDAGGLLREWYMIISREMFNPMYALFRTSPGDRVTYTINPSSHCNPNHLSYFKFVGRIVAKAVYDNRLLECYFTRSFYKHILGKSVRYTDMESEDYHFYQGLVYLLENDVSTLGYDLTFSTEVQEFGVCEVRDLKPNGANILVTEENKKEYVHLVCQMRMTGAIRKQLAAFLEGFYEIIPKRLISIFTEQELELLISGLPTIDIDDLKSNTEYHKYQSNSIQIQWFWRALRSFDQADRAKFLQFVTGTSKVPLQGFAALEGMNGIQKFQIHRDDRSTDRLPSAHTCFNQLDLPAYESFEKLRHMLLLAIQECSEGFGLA", "experiment": "In vivo (cellular) ubiquitination of MCL1 by ectopic HA-HUWE1 in HeLa cells", "type": "cell-based", "conditions": "HeLa cells transfected with MCL1, His-ubiquitin, inhibitor 16 hrs, read-out: IC50 relative MCL1 ubiquitination", "excerpt": "HeLa cells were transfected with plasmids expressing MCL1, His-ubiquitin, and HA-HUWE1. […] After lysis, ubiquitin-modified proteins were recovered by Ni-NTA-Agarose and immunoblots of the eluates were probed with an antibody against MCL1. […] At the same time, cells were irradiated with 500 J/m^2 UVB and harvested after indicated time points. Immunoblots of the lysates were probed with antibodies recognizing either MCL1 or CDK2 as control. Quantification of the MCL1 protein levels for the according experiment is shown directly below the immunoblots. Diagrams below the immunoblots show mean protein levels ± SD (n = 5). From the data, the half-life of the MCL1 protein was determined with P-values calculated using a Student's t-test. • Effects of HUWE1 inhibition on levels of TopBP1. […] Cell lysates were fractionated in chromatin-bound and soluble non-chromatin-bound fractions. Immunoblots of the soluble fraction were incubated with indicated antibodies.\nTo test the efficacy of both compounds in tissue culture, we initially confirmed observations that HUWE1 ubiquitinates and degrades MCL1 in response to DNA damage (Zhong et al, [2005]). Consistent with these published data, steady-state levels of MCL1 decreased rapidly upon UV irradiation of U2OS cells and depletion of HUWE1 both enhanced steady-state levels of MCL1 and retarded the decrease upon UV irradiation (Supplementary Fig S4A). […]"}, "NEDD4": {"biological_target": "T2, NEDD4 (Homo sapiens, UniProt P46934)", "T2 construct": "HECT-domains of multiple ligases auto-ubiquitinate in in vitro assays containing both UBA1 and UbcH5b", "T2 sequence (P46934 984-1318 limits assumed, species assumed)": "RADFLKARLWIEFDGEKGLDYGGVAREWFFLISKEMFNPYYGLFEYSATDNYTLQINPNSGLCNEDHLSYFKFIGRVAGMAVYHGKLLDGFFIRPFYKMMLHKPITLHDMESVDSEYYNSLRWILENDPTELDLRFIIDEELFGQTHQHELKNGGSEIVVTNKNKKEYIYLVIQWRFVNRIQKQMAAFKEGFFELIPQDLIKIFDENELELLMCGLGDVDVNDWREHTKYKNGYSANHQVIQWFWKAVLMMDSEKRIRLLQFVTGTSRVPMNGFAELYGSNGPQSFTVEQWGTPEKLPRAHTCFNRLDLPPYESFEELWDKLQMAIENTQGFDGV", "experiment": "in vitro HECT-domain auto-ubiquitination assay, NEDD4", "type": "biochemical", "description": "Briefly, the HECT-domain of HUWE1 was biotin-tagged, attached to streptavidin-coated 96-well plates, and incubated with UBA1, UbcH5b, a ubiquitin-conjugating enzyme that supports HUWE1 activity in vitro (Adhikary et al, [2005]), ATP, and MYC-tagged ubiquitin. Auto-ubiquitination was detected using a europium-labeled MYC antibody and appropriate detection reagents (Fig3A). […] These assays were used to analyze the specificity of the identified inhibitors."}, "Ls174T cells": {"test_system": "Ls174T cells", "experiment": "Crystal violet growth assay of control and partially HUWE1-depleted Ls174T cells (IC50 shift)", "type": "cell-based", "conditions": "Homo sapiens, 120 h, crystal violet after five days", "experimental": "Partial shRNA-mediated depletion of HUWE1 led to a moderate, but highly significant reduction in IC50 value for growth inhibition by BI8622, arguing that growth inhibition is an on-target effect of the inhibitor (Supplementary Fig S6). […] Incubation with either compound retarded passage of Ls174T cells through all phases of the cell cycle, with the effect being strongest for G1. In contrast to colon carcinoma cells, HUWE1 is not required for proliferation of embryonic stem (ES) cells and deletion of HUWE1 instead delays the decrease of N-MYC levels that occurs upon removal of leukemia inhibitory factor (LIF) from the medium (Zhao et al, [2008]). […] Furthermore, inhibition of HUWE1 in crypt cultures of normal intestinal epithelial cells had no effect on expression of MYC target genes (Fig4G).\nHCT116, HEK293T, HeLa, HT29, ES, Phoenix, and U2OS cells were cultivated in DMEM (Sigma). Ls174T and SW480 cells were grown in RPMI 1640 (Sigma). All media were supplemented with 10% FBS (Biochrom AG) and 1% penicillin/streptomycin (Sigma). Medium for ES cells contained 15% FBS, 1% NEAA (Gibco), 6 μg/ml LIF, and 0.05 mM β-mercaptoethanol (Sigma). […] Quantification of crystal violet staining was performed by extracting dye with 10% acetic acid and measuring absorbance at 590 nm. IC50 values were calculated using the four parameter logistic equation model. […]\nC. Quantification of the staining. […]"}},
  "note": "Where two headings read alike, the source gives them in different places.",
  "data": [
    {"compound": "Cc1c(C(=O)Nc2ccc(CN)cc2)ncnc1N1CCC(C#N)(c2ccccc2)CC1", "note": "[BI8622]", "values": [
      {"measurement": "IC50", "setting": "HUWE1", "value": 6.8, "unit": "µM"},
      {"measurement": "IC50", "setting": "NEDD4", "value": "> 50", "unit": "µM"},
      {"measurement": "IC50", "setting": "Ls174T cells; control Ls174T cells, read-out: IC50 growth inhibition, ctr cells", "value": 8.1, "unit": "µM"},
      {"measurement": "IC50", "setting": "Ls174T cells; partially HUWE1-depleted Ls174T cells, read-out: IC50 growth inhibition, shHUWE1 cells", "value": 6.5, "unit": "µM"}
    ]}
  ]
}
